Assay results published in patent US20240423971A1, “APPLICATION OF RIP2 INHIBITOR COMBINED WITH CHEMOTHERAPY DRUG” (NINGBO COMBIREG PHARMACEUTICAL TECHNOLOGY CO., LTD., priority 2021, published 2024).

Legend:
[1] = tested on: immune cells in tumor tissues of melanoma (B16F10) tumor-bearing model; assay: Flow cytometry detection of proportion of immune cells in tumor microenvironment of melanoma tumor-bearing mice; assay type: in vivo, C57BL/6 mice; conditions: GSK583 1 mg/kg, PTX 10 mg/kg, combination vs vehicle, GSK583-alone
Method: Preparation of enzyme lysis buffer: 1 g of collagenase type IV (Sigma C5138), 100 mg of hyaluronidase (Sigma H6254), and 20,000 units of DNase type IV (Sigma D5025) were added to 80 mL of HBSS and mixed well. The mixture was then added with HBSS to make up a volume of 100 mL to obtain a 100×enzyme lysis buffer, which was filtered through a 0.22 μm filter membrane and stored at −20° C., and diluted with HBSS to 1× concentration before use.
Dissociation of tumor tissues: Tumor tissues were removed and weighed (0.04 to 1 g), then cut into small pieces of 2×2 mm with a scalpel, added with 2.5 mL of enzyme lysis mixture, and transferred to a gentleMACS C Tube (Miltenyi Biotec 130-096-334). The C Tube was inverted on a gentleMACS Dissociator (Miltenyi Biotec 130-093-235), and the program “gentleMACS Program m_impTumor_02” was run. The C Tube was removed from the gentleMACS Dissociator and incubated at 37° C. for 40 minutes. The C Tube was inverted on the gentleMACS Dissociator again, and the program “gentleMACS Program m_impTumor_03” was run. […]
Flow cytometry detection: After counting the dissociated tumor tissues, the cell concentration was adjusted, and 200 μL/well of cells (5 to 10×10^5 cells/well) were added to a 96 U-bottom plate. […] The cells were resuspended in 100 μL/well of cell staining buffer, and then detected by flow cytometry.

melanoma (B16F10) = assay: Melanoma (B16F10) tumor-bearing model, GSK583 combined with PTX; assay type: in vivo, C57BL/6 mice; conditions: GSK583 1 mg/kg
Method: Both of the test substances PTX (Sigma) and GSK583 (MCE) were prepared as a 20× DMSO stock solution, which was diluted with normal saline containing 5% (v/v) polyoxyethylene castor oil (Cremophor EL) to the administration concentration before use. Experimental animals and tumor strains: SPF grade male wild-type C57BL/6 mice, 6 to 8 weeks old, purchased from Beijing Vital River Laboratory Animal Technology Co., Ltd. Cells used in the experiment: murine melanoma cell line (B16-F10), purchased from ATCC. Mice were randomly divided into 4 groups with 8 mice in each group based on body weight according to the method shown in (A of FIG. 1 and B of FIG. 1), namely: (i) vehicle control group; (ii) GSK583 (1 mg/kg) group; (iii) PTX (10 mg/kg) group; (iv) GSK583 (1 mg/kg)+PTX (10 mg/kg) group. PTX, GSK583, and vehicle were administered intravenously once every 4 days for a total of 4 doses. The mice were subcutaneously inoculated with B16-F10 cells with a concentration of 2× 10^6 cells/mL and 0.1 mL/mouse, and the day of inoculation was recorded as DAY 0. The administration was started on DAY 1. During the administration, the animals were weighed every 2 days. The long diameter and short diameter of the tumor were measured with a vernier caliper. The tumor size was calculated by the formula: (½)×long diameter×(short diameter) 2. The experiment was terminated on DAY 15. After the mice were euthanized and dissected, the tumor was weighed and the tumor inhibition rate was calculated.

Compound: CC(=O)O[C@H]1C(=O)[C@@]2(C)[C@H]([C@H](OC(=O)c3ccccc3)[C@]3(O)C[C@H](OC(=O)[C@H](O)[C@@H](NC(=O)c4ccccc4)c4ccccc4)C(C)=C1C3(C)C)[C@]1(OC(C)=O)CO[C@@H]1C[C@@H]2O [PTX, Paclitaxel]
- proportion of neutrophils in tumor tissues [1]: significant decrease
- tumor weight at the end of the administration (melanoma (B16F10); B16-F10 in C57BL/6 mice, PTX 10 mg/kg i.v. every 4 days x4, DAY 15, vs control group): significantly and statistically lower than that of the control group
- growth rate of tumor volume (melanoma (B16F10); B16-F10 in C57BL/6 mice, PTX 10 mg/kg i.v. every 4 days x4, vs control group): slower than that of the control group
- tumor growth compared to the vehicle control group (melanoma (B16F10); B16-F10 s.c. in C57BL/6 mice, PTX 10 mg/kg i.v. once every 4 days, 4 doses, to DAY 15): significantly inhibited tumor growth
